Results reported in article PMC8507746, “The FHP01 DDX3X Helicase Inhibitor Exerts Potent Anti-Tumor Activity In Vivo in Breast Cancer Pre-Clinical Models” (Cancers, 2021).

Columns and labels:
[1] = molecular target: T1, HA-DDX3X immunoprecipitated from 293T cells (Homo sapiens, UniProt O00571); assay: Qualitative in vitro helicase assay with immunoprecipitated HA-DDX3X (dsRNA unwinding); assay type: biochemical; conditions: human protein immunoprecipitated from 293T cells
T1 construct: host or cells: 293T cells, transient transfection, anti-HA immunoprecipitation; protein used on beads
T1 sequence (O00571 whole entry): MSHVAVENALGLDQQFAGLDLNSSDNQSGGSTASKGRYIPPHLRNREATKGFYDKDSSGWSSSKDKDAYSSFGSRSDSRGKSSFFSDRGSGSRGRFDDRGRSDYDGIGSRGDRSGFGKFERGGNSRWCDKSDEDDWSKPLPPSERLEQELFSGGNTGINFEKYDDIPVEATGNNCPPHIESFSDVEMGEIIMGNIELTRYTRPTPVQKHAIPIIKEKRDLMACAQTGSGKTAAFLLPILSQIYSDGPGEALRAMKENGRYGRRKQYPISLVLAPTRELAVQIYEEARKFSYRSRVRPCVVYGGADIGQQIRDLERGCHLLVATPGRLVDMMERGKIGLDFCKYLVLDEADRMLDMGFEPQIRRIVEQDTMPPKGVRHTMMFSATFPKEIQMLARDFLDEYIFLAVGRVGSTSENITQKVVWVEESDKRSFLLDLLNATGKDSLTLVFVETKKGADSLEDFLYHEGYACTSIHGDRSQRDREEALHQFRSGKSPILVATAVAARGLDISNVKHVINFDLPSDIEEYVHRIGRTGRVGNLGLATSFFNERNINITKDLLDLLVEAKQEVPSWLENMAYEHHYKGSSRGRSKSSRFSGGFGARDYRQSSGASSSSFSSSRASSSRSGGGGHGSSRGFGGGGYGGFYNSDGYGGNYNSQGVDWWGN
Description: 293T cells (3 × 10^5) were seeded in 6-well plates and, after 24 h, transfected with 1 μg of HA-DDX3 (Addgene plasmid # 44975) by using the Lipofectamine reagent (Thermo Fischer Scientific, Waltham, MA, USA). After 36 h, cells were lysed in NP-40 Lysis Buffer (20 mM HEPES pH = 7.5, 10 mM EGTA pH = 8, 40 mM β-glycerolphosphate, 1% NP40, 2.5 mM MgCl2, 2 mM Orthovanadate, 2 mM NaF, 1 mM DTT, and 1X protease inhibitors mixture) and 2 mg of proteins were immunoprecipitated with anti-HA antibodies (Covance, Princeton, NJ, USA) in NP40 lysis buffer. Immunoprecipitated samples were washed twice with lysis buffer and one time in helicase reaction buffer (50 mM Tris HCl pH = 8, 1 mM DTT, 5% glycerol, 10 mM MgCl2). Beads were then resuspended in 100 μL in helicase reaction buffer. […]
Ultimately, reactions were performed in a final volume 100 μL of helicase reaction buffer plus ATP 4 mM, 30 μL of beads used to immunoprecipitate HA-DDX3X, 20 nM of 18/36mer dsRNA, and 100 nM of competitor at 37 °C for 1 h and stopped by adding 10 μL of a stopping solution (EDTA 60 mM pH = 8, 40% glycerol, 0,6% SDS, 1% Orange G). […] Quantification of the ssRNA was performed by the ImageJ software (National Institutes of Health, Bethesda, MD, USA).

MDA MB 231 cells = assay: Cell viability / cytotoxicity assay (cell counting); assay type: cell-based; conditions: Homo sapiens
Description: (§1) Cells were seeded at 3–5 × 10^4 cells/well density (depending on cell lines) in 12-well plates, in triplicate, and maintained at 37 °C in 5% CO2. After 24 h, cells were treated with different concentrations of indicated drugs in a range from 0 to 100 μM (0, 0.1, 1, 10, 50, 100 μM). […] Cell number of each sample was determined with Z2 Coulter Counter (Beckman Coulter, Brea, CA, USA), in triplicate. Data about cell viability were plotted in GraphPad Prism 8.0 software (GraphPad Software, San Diego, CA, USA) to draw dose-response curve and to calculate IC50.

MDA MB 468 cells = assay: as above; assay type: cell-based; conditions: Homo sapiens
Description: as §1

[2] = as above; assay type: cell-based; conditions: human, MCF10A control cells
Description: (§2) Cells were seeded at 3–5 × 10^4 cells/well density (depending on cell lines) in 12-well plates, in triplicate, and maintained at 37 °C in 5% CO2. After 24 h, cells were treated with different concentrations of indicated drugs in a range from 0 to 100 μM (0, 0.1, 1, 10, 50, 100 μM). After 72 h incubation, cells were washed in PBS and harvested. Cell number of each sample was determined with Z2 Coulter Counter (Beckman Coulter, Brea, CA, USA), in triplicate. Data about cell viability were plotted in GraphPad Prism 8.0 software (GraphPad Software, San Diego, CA, USA) to draw dose-response curve and to calculate IC50.

MCF7 cells = assay: as above; assay type: cell-based; conditions: Homo sapiens, MCF7, 72 h
Description: as §2

[3] = Pharmacokinetic profiling, plasma concentration in mice; assay type: in vivo, Swiss Albino mice
Description: These studies were performed at the GVKBioscience Pvt. LTD Contract Research and Development Organization (CRDO). Animals were housed in cages with clean bedding. Adult Swiss Albino male mice (weight = 20–35 g) were maintained and monitored for good health in accordance with GVKBioscience Pvt. LTD Test Facility SOPs and at the discretion of the laboratory animal veterinarian. Certified rodent diet was provided, and water was available ad libitum. A periodic analysis of the water was performed, and the results have been archived at the Test Facility. Environmental controls for the animal room were set to maintain a temperature of 22 to 25 °C, humidity of 40–70% relative humidity, and a 12-h light/12-h dark cycle. Animals have been dosed i.v. with 1 mg/kg of FHP01 i.p. with 10 mg/kg of compound or p.o. through gastric gavage needle with 50 mg/kg of compound. Next, mice were anesthetized using gaseous anesthesia and blood samples were collected at each time point, from 3 mice of respective group. After collection of blood samples at each time point, the blood samples were stored on ice, prior to centrifugation. Blood samples were centrifuged at 1540 rcf (5000 rpm), 4 °C for 10 min to separate plasma. Plasma was transferred to pre-labeled micro-centrifuge tubes and promptly frozen at −80 °C until analysis. Samples have been identified by test item, group, animal number, and collection time point. A fit-for-purpose bioanalytical method was developed for analyzing the plasma samples. One set of nine standards have been run before the sample batch and used for plotting the calibration curve. Quality control (QC) samples have been prepared at a minimum of three concentrations, i.e., LQC (not more than 5 times to that of lowest standard concentration), HQC (not less than 75% of the highest standard concentration), and MQC (between the low and high concentration). Minimum of 6 QC samples (three concentrations in duplicate). One Set of QC (LQC, MQC, and HQC) samples have been analyzed before and after the sample batch.

DDX3X = tested on: DDX3X; parameters: method as in earlier work; conditions: in vitro enzymatic activity; read-out: IC50, DDX3X helicase activity; cited from earlier work

CCCCc1cn(-c2ccc(NC(=O)Nc3ccccc3C(F)(F)F)cc2)nn1 [FHP01]
inhibition of DDX3X helicase activity, qualitative [1]: activity comparable to RK33 | IC50 (MDA MB 231 cells; MDA MB 231, 24h): 13.3 µM | IC50 (MDA MB 231 cells; MDA MB 231, 48h): 4.14 µM | IC50 (MDA MB 231 cells; MDA MB 231, 72 h): 3.21 µM | IC50 (MDA MB 468 cells; MDA MB 468, 24h): 12.7 µM | IC50 (MDA MB 468 cells; MDA MB 468, 48h): 3.48 µM | IC50 (MDA MB 468 cells; MDA MB 468, 72 h): 3.06 µM | IC50 at 72 h [2]: 28.7 µM | IC50 (MCF7 cells): 12.4 µM | plasma concentration profile ([3]; 1 mg/kg i.v.): rapidly decreasing plasma concentration | plasma concentration profile ([3]; 10 mg/kg i.p.): high plasma concentration | plasma concentration profile ([3]; 50 mg/kg p.o.): high plasma concentration | IC50 (DDX3X): 0.3 µM
